pIC50: −log10 of the molar value. Counter-ions that a name gives are not always drawn.
Legend:
Assay type in all cases: biochemical
[1] = target: T1, Serotonin (5-HT) uptake (Rattus norvegicus, UniProt P31652); experiment: Serotonin (5-HT) uptake inhibitory activity using rat brain synaptosome (frontal cortex); details: tritium-labeled 5-HT 8 nM, 37° C. 10 minutes, read-out: 50% Inhibitory concentration
T1 construct: The suspension was used as a crude synaptosome fraction; from tissue; host or cells: rat (male Wistar) frontal cortex, crude synaptosome fraction
T1 sequence (P31652 whole entry): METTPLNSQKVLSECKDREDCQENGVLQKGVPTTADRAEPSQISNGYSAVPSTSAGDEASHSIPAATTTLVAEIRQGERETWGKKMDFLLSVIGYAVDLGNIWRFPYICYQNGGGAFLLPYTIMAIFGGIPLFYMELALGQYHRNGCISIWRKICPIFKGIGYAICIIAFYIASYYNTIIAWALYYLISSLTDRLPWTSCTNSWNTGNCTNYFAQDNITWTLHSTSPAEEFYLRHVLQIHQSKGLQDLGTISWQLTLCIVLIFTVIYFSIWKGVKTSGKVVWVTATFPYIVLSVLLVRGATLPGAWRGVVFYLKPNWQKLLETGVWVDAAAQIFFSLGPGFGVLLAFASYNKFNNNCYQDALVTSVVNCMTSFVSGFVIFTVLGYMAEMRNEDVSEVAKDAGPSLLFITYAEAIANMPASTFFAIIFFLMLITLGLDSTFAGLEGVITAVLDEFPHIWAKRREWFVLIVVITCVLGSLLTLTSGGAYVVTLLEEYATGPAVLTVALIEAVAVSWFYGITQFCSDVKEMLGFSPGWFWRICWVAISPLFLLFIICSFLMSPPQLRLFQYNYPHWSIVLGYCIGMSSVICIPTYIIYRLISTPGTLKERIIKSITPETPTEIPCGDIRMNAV
Experimental: Measurement of Serotonin (5-HT) Uptake Inhibitory Activity of Test Compound Using Rat Brain Synaptosome
(§1) Male Wistar rats were decapitated, and their brains were removed and dissected to remove the frontal cortex. The separated frontal cortex was placed in a 20-fold weight of a 0.32 molarity (M) sucrose solution and homogenized with a potter homogenizer. The homogenate was centrifuged at 1000 g at 4° C. for 10 minutes, and the supernatant was further centrifuged at 20000 g at 4° C. for 20 minutes. […] The suspension was used as a crude synaptosome fraction.
(§2) Uptake reaction was performed using each well of a 96-well round-bottom plate and a 200 μl volume in total of a solution containing pargyline (final concentration: 10 μM) and ascorbic acid (final concentration: 0.2 mg/ml).
(§3) Specifically, a solvent, unlabeled 5-HT, and serially diluted test compounds were separately added to the wells, and the synaptosome fraction was added in an amount 1/10 of the final volume to each well and preincubated at 37° C. for 10 minutes. Then, a tritium-labeled 5-HT solution (final concentration: 8 nM) was added thereto to initiate uptake reaction at 37° C. 10 minutes later, the uptake reaction was terminated by suction filtration through a 96-well glass fiber filter plate. Furthermore, the filter was washed with a cold saline and then sufficiently dried. MicroScint-O (PerkinElmer Co., Ltd.) was added thereto, and the residual radioactivity on the filter was measured.
(§4) An uptake value obtained by the addition of only the solvent was defined as 100%, and an uptake value (nonspecific uptake value) obtained by the addition of the unlabeled 5-HT (final concentration: 10 μM) was defined as 0%. A 50%, inhibitory concentration was calculated from the test compound concentrations and inhibitory activities thereat.

[2] = target: T2, Dopamine (DA) uptake (Rattus norvegicus, UniProt P23977); experiment: Dopamine (DA) uptake inhibitory activity using rat brain synaptosome (corpus striatum); details: tritium-labeled DA 2 nM, 37° C. ten minutes, read-out: 50% Inhibitory concentration
T2 construct: The suspension was used as a crude synaptosome fraction; from tissue; host or cells: rat (male Wistar) corpus striatum, crude synaptosome fraction
T2 sequence (P23977 whole entry): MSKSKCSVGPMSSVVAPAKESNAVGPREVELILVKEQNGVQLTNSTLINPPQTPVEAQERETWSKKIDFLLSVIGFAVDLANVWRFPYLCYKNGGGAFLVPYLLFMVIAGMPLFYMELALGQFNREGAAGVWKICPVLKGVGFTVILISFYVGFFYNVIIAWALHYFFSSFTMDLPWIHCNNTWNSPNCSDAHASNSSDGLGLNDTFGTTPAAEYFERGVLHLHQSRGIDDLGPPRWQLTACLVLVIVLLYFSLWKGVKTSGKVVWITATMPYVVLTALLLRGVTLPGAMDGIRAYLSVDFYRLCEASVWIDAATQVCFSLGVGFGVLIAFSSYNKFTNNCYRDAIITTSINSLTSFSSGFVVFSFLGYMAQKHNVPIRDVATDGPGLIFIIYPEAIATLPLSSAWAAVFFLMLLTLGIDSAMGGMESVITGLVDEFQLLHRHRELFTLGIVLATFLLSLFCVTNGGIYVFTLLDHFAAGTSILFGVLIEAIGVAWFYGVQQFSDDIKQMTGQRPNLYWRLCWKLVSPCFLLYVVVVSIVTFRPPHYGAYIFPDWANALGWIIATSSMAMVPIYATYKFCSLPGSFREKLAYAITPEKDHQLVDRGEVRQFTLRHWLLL
Experimental: Measurement of Dopamine (DA) Uptake Inhibitory Activity of Test Compound Using Rat Brain Synaptosome
as §1, with “corpus striatum.” for “frontal cortex.”, “corpus striatum” for “frontal cortex”
Uptake reaction was performed using each well of a 96-well round-bottom plate and a 200 μl volume in total of a solution containing pargyline (final concentration: 10 μM) and ascorbic acid (final concentration: 0.2 mg/mil).
as §3, with “unlabeled DA,” for “unlabeled 5-HT,”, “tritium-labeled DA” for “tritium-labeled 5-HT”, “concentration: 2” for “concentration: 8”, “C. Ten” for “C. 10”
as §4, with “DA” for “5-HT”, “50%” for “50%,”

[3] = target: Norepinephrine (NE) uptake (Rattus norvegicus, UniProt Q9WTR4); experiment: Norepinephrine (NE) uptake inhibitory activity using rat brain synaptosome (hippocampus); details: tritium-labeled NE 12 nM, 37° C. ten minutes, read-out: 50% inhibitory concentration
Experimental: Measurement of Norepinephrine (NE) Uptake Inhibitory Activity of Test Compound Using Rat Brain Synaptosome
Male Wistar rats were decapitated, and their brains were removed and dissected to remove the hippocampus. The separated hippocampus was placed in a 20-fold weight of a 0.32 molarity (M) sucrose solution and homogenized with a potter homogenizer. The homogenate was centrifuged at 1000 g at 4° C. for 10 minutes, and the supernatant was further centrifuged at 20000 g at 4° C. for 20 minutes. The pellet was suspended in an incubation buffer (20 mM HEPES buffer (pH 7.4) containing 10 mM glucose, 145 mM sodium chloride, 4.5 mM potassium chloride, 1.2 mM magnesium chloride, and 1.5 mM calcium chloride). The suspension was used as a crude synaptosome fraction.
as §2
as §3, with “unlabeled NE,” for “unlabeled 5-HT,”, “tritium-labeled NE” for “tritium-labeled 5-HT”, “concentration: 12” for “concentration: 8”, “C. Ten” for “C. 10”
as §4, with “NE” for “5-HT”, “50%” for “50%,”

Compound	pIC50 [1]	pIC50 [2]	pIC50 [3]
CC1(C)CN(c2ccc(Cl)c(Cl)c2)[C@H]2CCC[C@@H]2N1 (racemic) [Example 15]	7.90	7.16	7.96
CC1(C)CN(c2ccc3cc[nH]c3c2)[C@H]2CCCC[C@H]2N1 [Example 2, (4aR,8aS)-1-(1H-indol-6-yl)-3,3-dimethyldecahydroquinoxaline]	8.15	7.07	8.34
CN1[C@@H]2CCCC[C@@H]2N(c2cccc3occc23)CC1(C)C [Example 132]	8.06	8.41	8.51
C[C@@H]1CN(c2ccc3ccc(C#N)cc3c2)[C@H]2CCCC[C@@H]2N1 [Example 1341]	8.17	6.95	7.37
CN1[C@@H]2CCCC[C@@H]2N(c2cccc3sccc23)CC1(C)C [Example 125]	8.33	8.28	8.72
CC1(C)CN(c2ccc3sccc3c2)[C@@H]2CCCCC[C@@H]2N1 (racemic) [Example 344]	8.17	8.01	8.12
c1cc2cc(N3CC4(CCCC4)N[C@H]4CCCC[C@@H]43)ccc2s1 (relative stereo) [Example 307]	7.71	7.17	7.39
CN1[C@@H]2CCCC[C@H]2N(c2ccc(Cl)c(Cl)c2)CC1(C)C [Example 273]	7.36	8.06	8.17
CC1(C)CN(c2ccc(Cl)c(Cl)c2)[C@@H]2CCCCC[C@@H]2N1 (relative stereo) [Example 346]	8.00	8.11	8.06
COc1cc2ccc(N3CC(C)(C)N[C@@H]4CCCC[C@H]43)cc2cc1C#N [Example 962]	7.73	7.16	7.50
CC1(C)CN(c2ccc(F)c3occc23)[C@H]2CCCC[C@H]2N1 [Example 136]	8.89	8.11	9.30
CC1(C)CN(c2cc(F)c(F)c3occc23)[C@@H]2CCCC[C@@H]2N1 [Example 580, (4aS,8aR)-1-(6,7-difluorobenzofuran-4-yl)-3,3-dimethyldecahydroquinoxaline hydrochloride]	8.60	6.69	8.27
CC[C@@H]1CN(c2ccc3ccccc3c2)[C@H]2CCCC[C@@H]2N1C (relative stereo) [Example 288]	7.25	7.13	7.66
CC1(C)CN(c2cccc3ccsc23)[C@H]2CCCC[C@H]2N1 [Example 130]	8.28	8.41	9.30
CC1(C)CN(c2cccc3ccsc23)[C@@H]2CCCC[C@@H]2N1 [Example 72]	8.59	7.32	9.00
CC1(C)CN(c2ccc(OC(F)F)c3occc23)[C@@H]2CCCC[C@H]2N1 [Example 983]	8.19	6.76	7.32
Cc1noc(-c2ccc(N3C[C@@H](C)N[C@H]4CCCC[C@@H]43)cc2)n1 [Example 1333]	7.07	7.14	7.40
c1cc(N2CC3(CCC3)N[C@H]3CCCC[C@@H]32)c2ccoc2c1 [Example 1047]	9.15	8.96	9.15
CC1(C)CN(c2ccc3sccc3c2)[C@H]2CCCC[C@@H]2N1 [Example 186]	8.28	7.53	8.42
CC1(C)CN(c2ccc3cc(O)ccc3c2)[C@H]2CCCC[C@@H]2N1 [Example 850]	8.14	8.15	9.00
CC1(C)CN(c2ccc(F)c3[nH]ccc23)[C@H]2CCCC[C@@H]2N1 [Example 895]	8.27	7.70	8.52
CC1(C)CN(c2ccc(Cl)c(Cl)c2)C2CCCC2N1 (stereo not drawn) [Example 10]	8.21	7.19	8.06
CC1(C)CN(c2cccc3sccc23)[C@@H]2CCCC[C@@H]2N1 (relative stereo) [Example 27]	8.24	7.50	9.05
CC1(C)CN(c2ccc3sccc3c2)[C@H]2CCCCC[C@@H]2N1 (relative stereo) [Example 348]	8.19	7.56	8.34

Reference: patent US11273168B2, “Methods of treating anxiety by administering a substituted quinolone” (OTSUKA PHARMACEUTICAL CO., LTD., priority 2010, dated 2022)
